Laboratory results as given in patent US20230190774A1, “METHOD OF USING SUBSTRATES OF AKR1Bl/AKR1B10 AS ANTI-CANCER DRUGS” (Beijing Normal University Hong Kong Baptist University …, priority 2015, published 2023).
“Also recorded” adds a separate entry of the source. Where two headings read alike, the source gives them in different places. Where a SMILES comes first, the peptide text is derived from it. The star is where a group is joined. Cbz = O=C(OCc1ccccc1)*

Experiments:
SKOV3 cells = test: Cytotoxicity assay (cell survival rate, MTT); format: cell-based; conditions: for Cytotoxicity of AKR1Bs substrate (cell survival rate): substrate alone, 2DG for 72 hours
Procedure: (§1) HepG2 cells, SKOV3 cells, HCT116 cells and CaCo2 cells were cultured in DMEM medium, SW480 cells in 1640 medium, and HT29 cells in McCoy’s 5A medium. All cell culture media were supplemented with 10% FBS, 1% PSN, and cells were cultured in a humidified incubator containing 5% CO2 at 37° C. In cytotoxicity assays, cells were seeded at 1 × 10^5 cells/well in 96 well plates with full medium. In GSH assay and Western blot analysis, cells were seeded at 3× 10^6 cells/well in 6 well plates.
(§2) The AKR1Bs substrates’ cytotoxicity was assessed by cell survival rate using MTT assay. After the cells were treated with the substrates for the length of time indicated, MTT was added to a final concentration of 0.5 mg/ml in each well of a 96-well plate, and the plates were incubated at 37° C. for 4 hour. Then DMSO was added to dissolve the formazan product, the amount of which is proportional to the number of live cells. The absorbance of dissolved dye was measured at 540 nm using an automatic microplate reader.

CaCo2 cells = test: Cytotoxicity assay (cell survival rate, MTT); format: cell-based
Procedure: as §1, §2

HCT116 cells = test: Cytotoxicity assay (cell survival rate, MTT); format: cell-based
Procedure: as §1, §2

HepG2 cells = test: Cytotoxicity assay (cell survival rate, MTT); format: cell-based; conditions: for Cytotoxicity of AKR1Bs substrate (cell survival rate): substrate alone, 2DG for 72 hours
Procedure: as §1, §2

HepG2 tumor xenograft = conditions: 80 mg/kg, tail vein, daily for 21 days
Procedure: Six-week-old male BALB/C nude mice were purchased from the Laboratory Animal Unit of the University of Hong Kong. Mice were allowed to acclimate to laboratory conditions for 1 week before cancer cells injection. […] Treatment was initiated when the tumor grew to about 200±100 mm3. […] Mice were randomized and allocated to different groups. They received daily tail vein injection for 3 weeks of one of the following: glyceraldehyde (500 mg/kg body weight); diacetyl (80 mg/kg body weight); or normal saline. Mice were weighted and the sizes of the tumors were measured with calipers every 3 days. Tumor volumes were calculated with the formula: length×width2/2. Animals were humanely killed at the end of the experiment and their tumors were weighed.

AKR1B1 [1] = molecular target: AKR1B1 (Homo sapiens, UniProt P15121); conditions: ND = no detectable activity or less than 32 nmol/min/mg; cited from earlier work
AKR1B10 [2] = molecular target: T1, AKR1B10 (Homo sapiens, UniProt O60218); conditions: ND = no detectable activity or less than 32 nmol/min/mg; cited from earlier work
AKR1B10 [3] = molecular target: T1, AKR1B10; test: Enzyme activity assay (NADPH oxidation), purified AKR1B10; format: biochemical; conditions: 20 mM substrate, pH 7.0, 30° C.
Procedure: Assay of AKR1B1 and AKR1B10 enzymes activities were conducted in 1 ml of the reaction mixture containing 135 mM sodium phosphate buffer (pH 6.2 for AKR1B1 or pH 7.0 for AKR1B10), 0.2 mM NADPH, 0.3 M ammonium sulfate, 2 µg purified protein and 20 mM of their substrate as indicated. The reaction mix was incubated at 30° C. for 30 minutes (min). Protein-free blank controls were included. The decrease of NADPH was monitored by spectrophotometer at 340 nm. Enzyme activity was calculated as the amount of NADPH oxidized/min/mg of protein (Shen Y et al., Chem Biol Interact. 2011, 191(1-3): 192-198).

[4] = for Death Rate / Death/Total: i.v., n=8
Procedure: ICR mice (18-22 g) were acquired from the Laboratory Animal Services Centre, The Chinese University of Hong Kong. These animals were housed in an animal room with 12 h of day and dark cycles, and the temperature maintained at around 25° C. There were 4 male and 4 female in each treatment and control group. They were treated with either diacetyl or glyceraldehyde. Diacetyl and glyceraldehyde were dissolved with saline and administered to the mice by intravenous injection with the amount indicated. […] Mortality was recorded daily for the calculation of […] (LD50). All surviving animals were euthanized with diethyl-ether at the end of the experiment.

HT29 cells = test: Cytotoxicity assay (cell survival rate, MTT); format: cell-based
Procedure: as §2, with “HepG2 cells, SKOV3 cells, HCT116 cells and CaCo2 cells were cultured in DMEM medium, SW480 cells in 1640 medium, and HT29 cells in McCoy’s 5A medium. […] In cytotoxicity assays, cells were seeded at 1 × 10^5 cells/well in 96 well plates with full medium. In GSH assay and Western blot analysis, cells were seeded at 3× 10^6 cells/well in 6 well plates. The AKR1Bs” for “The AKR1Bs”

SW480 cells = test: Cytotoxicity assay (cell survival rate, MTT); format: cell-based
Procedure: as §2, with “HepG2 cells, SKOV3 cells, HCT116 cells and CaCo2 cells were cultured in DMEM medium, SW480 cells in 1640 medium, and HT29 cells in McCoy’s 5A medium. […] In cytotoxicity assays, cells were seeded at 1 × 10^5 cells/well in 96 well plates with full medium. In GSH assay and Western blot analysis, cells were seeded at 3× 10^6 cells/well in 6 well plates. The AKR1Bs” for “The AKR1Bs”

AKR1B10 [5] = test: Western blot of AKR1B10 protein level in treated cells; format: cell-based, human
Procedure: as §1
(§3) Cells were lysed on ice with the protein extraction reagent. Total protein (30 µg) per sample were loaded onto 10% SDS-polyacrylamide gels and separated at 75V, and then electrotransferred to polyvinylidene difluoride (PVDF) membranes overnight at 15 V. Membranes were then soaked in 5% nonfat milk in TBS at room temperature for 1 hour and then incubated with rabbit anti-AKR1B1 antibodies (1:3000) or rabbit anti-AKR1B10 antibodies (1:3000) at room temperature for 2 hours. After being washed, the membranes were incubated in HRP-conjugated goat anti-rabbit or goat anti-mouse IgG secondary antibodies (1:5000) for 1 hour at room temperature, followed by washing and incubation with ECL reagents for 1 min. β-actin monoclonal mouse antibodies (1:5000) was used as reference to assess the relative amounts of proteins loaded per lane.

AKR1B1 [6] = test: Western blot of AKR1B1 protein level in treated cells; format: cell-based, human
Procedure: as §1, §3

[7] = substrate alone, 2DG for 72 hours
[8] = pretreated 24 hours before addition of 2DG
[9] = BSO (0.3 mM) with 1.25/0.625 mM substrate, NAC with 2.5/1.25 mM substrate
[10] = BSO with 1.25/0.625 mM substrate, NAC with 2.5/1.25 mM substrate

T1 sequence (O60218 whole entry): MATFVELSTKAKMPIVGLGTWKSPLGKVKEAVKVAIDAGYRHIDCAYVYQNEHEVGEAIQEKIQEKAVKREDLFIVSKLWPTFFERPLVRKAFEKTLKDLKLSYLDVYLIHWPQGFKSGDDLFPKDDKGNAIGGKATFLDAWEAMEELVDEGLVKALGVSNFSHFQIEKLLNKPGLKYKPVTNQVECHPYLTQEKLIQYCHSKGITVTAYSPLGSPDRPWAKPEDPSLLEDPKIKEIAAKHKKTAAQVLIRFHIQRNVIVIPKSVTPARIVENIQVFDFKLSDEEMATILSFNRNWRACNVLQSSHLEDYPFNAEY

For CC(=O)C(C)=O [Diacetyl, diacetyl], the “Cytotoxicity of AKR1Bs substrate (cell survival rate)” value (shortened to “Cytotoxicity of AKR1Bs substrate”) (SKOV3 cells) was “dose-dependently and preferentially kill”, the “Cytotoxicity of AKR1Bs substrate” value (SKOV3 cells; listed as diacetyl) was “dose dependently and preferentially kill” and the “Cytotoxicity of AKR1Bs substrate” value (CaCo2 cells; [7]) was “dose dependently and preferentially kill”. The “Cytotoxicity of AKR1Bs substrate” value (HCT116 cells; [7]) was “dose dependently and preferentially kill”, the “Cytotoxicity of AKR1Bs substrate” value (HepG2 cells) was “dose-dependently and preferentially kill” and the “Cytotoxicity of AKR1Bs substrate” value (HepG2 cells; listed as diacetyl) was “dose dependently and preferentially kill”. For the same compound, the Tumor volume (HepG2 tumor xenograft) was “significantly reduced”, the Tumor weight (HepG2 tumor xenograft) was “significantly reduced” and the “AKR1B1 activity, amount of NADPH (nmol) oxidized per min per mg of protein” value (from here on “AKR1B1 activity, amount … per mg of protein”) (AKR1B1 [1]) was 725 nmol/min/mg. For the same compound, the “AKR1B10 activity, amount of NADPH (nmol) oxidized per min per mg of protein” value (from here on “AKR1B10 activity, amount … per mg of protein”) (AKR1B10 [2]) was 2329 nmol/min/mg, the “Efficiency as substrate of AKR1B10 (rate of NADPH depletion)” value (AKR1B10 [3]) was “better substrate for AKR1B10 than for AKR1B1; also recorded: best substrate” and the LD50 ([4]; ICR mice, intravenous injection daily for 14 days) was 410 mg/kg BW. For the same compound, the “Death Rate” value ([4]; dose 300 mg/kg BW) was 0%, the Death/Total ([4]; dose 300 mg/kg BW) was 0/8 and the “Death Rate” value ([4]; dose 360 mg/kg BW) was 37.5%. The Death/Total ([4]; dose 360 mg/kg BW) was “⅜”, the “Death Rate” value ([4]; dose 432 mg/kg BW) was 62.5% and the Death/Total ([4]; dose 432 mg/kg BW) was “⅝”. For the same compound, the “Death Rate” value ([4]; dose 518 mg/kg BW) was 87.5%, the Death/Total ([4]; dose 518 mg/kg BW) was “⅞” and the “Death Rate” value ([4]; dose 622 mg/kg BW) was 100.0%. The Death/Total ([4]; dose 622 mg/kg BW) was 8/8, the “Cytotoxicity of AKR1Bs substrate” value (HT29 cells; [7]) was “more resistant” and the “Cytotoxicity of AKR1Bs substrate” value (SW480 cells; [7]) was “more resistant”.
In the case of CC(C)C[C@@H](C=O)NC(=O)[C@H](CC(C)C)NC(=O)[C@H](CC(C)C)NC(=O)OCc1ccccc1 [MG-132] (Cbz-Leu-Leu-Leu-aldehyde), the “Sensitivity to 2DG after pretreatment” value (HT29 cells; [8]) is reported as “significantly more cells were killed by 2DG”, the “Sensitivity to 2DG after pretreatment” value (SW480 cells; [8]) is reported as “significantly more cells were killed by 2DG” and the “AKR1B10 protein level (western blot)” value (AKR1B10 [5]; HT29 cells) is reported as “able to increase”. For the same compound, the “AKR1B10 protein level (western blot)” value (AKR1B10 [5]; SW480 cells) was “able to increase”, the “AKR1B1 protein level (western blot)” value (AKR1B1 [6]; HT29 cells) was “able to increase” and the “AKR1B1 protein level (western blot)” value (AKR1B1 [6]; SW480 cells) was “able to increase”.
In the case of CC(=O)C=O [Methyglyoxal], the “AKR1B1 activity, amount … per mg of protein” value (AKR1B1 [1]) is given as 942 nmol/min/mg and the “AKR1B10 activity, amount … per mg of protein” value (AKR1B10 [2]) is given as 7458 nmol/min/mg.
For CC(=O)N[C@@H](CS)C(=O)O [NAC, N-acetyl-cysteine], the “Effect on toxicity of glyceraldehyde and diacetyl” value (shortened to “Effect on toxicity”) (SKOV3 cells; [9]) was “able to protect the cells”, the “Effect on toxicity” value (CaCo2 cells; [10]) was “able to protect the cells” and the “Effect on toxicity” value (HCT116 cells; [10]) was “able to protect the cells”. The “Effect on toxicity” value (HepG2 cells; [9]) was “able to protect the cells”.
For O=Cc1ccccn1 [Pyridine-2-aldehyde], the “AKR1B1 activity, amount … per mg of protein” value (AKR1B1 [1]) is listed as 632 nmol/min/mg and the “AKR1B10 activity, amount … per mg of protein” value (AKR1B10 [2]) is listed as 4645 nmol/min/mg.
For O=Cc1ccc([N+](=O)[O-])cc1 [p-Nitrobenzaldehyde], the “AKR1B1 activity, amount … per mg of protein” value (AKR1B1 [1]) is given as 760 nmol/min/mg and the “AKR1B10 activity, amount … per mg of protein” value (AKR1B10 [2]) is given as 4480 nmol/min/mg.
